This is an account of results in patent US20240092773A1, “DIHYDRO-CYCLOPENTA-ISOQUINOLINE SULFONAMIDES DERIVATIVES” (UCB Biopharma SRL, priority 2019, published 2024).

Molecules are shown by their SMILES.

The target of this test is IgE-Tb binding to soluble IgE receptor FcεR1α (Y131A mutation) (Homo sapiens, UniProt P01854, N146Q/N252Q). Kind of test: In vitro FRET assay: inhibition of binding of IgE-Tb to receptor FcεR1α-Y131A-AF488. To be noted: read-out: FRET IC50 range.
IgE-Tb binding to soluble IgE receptor FcεR1α (Y131A mutation), sequence (P01854 whole entry N146Q/N252Q, looked up): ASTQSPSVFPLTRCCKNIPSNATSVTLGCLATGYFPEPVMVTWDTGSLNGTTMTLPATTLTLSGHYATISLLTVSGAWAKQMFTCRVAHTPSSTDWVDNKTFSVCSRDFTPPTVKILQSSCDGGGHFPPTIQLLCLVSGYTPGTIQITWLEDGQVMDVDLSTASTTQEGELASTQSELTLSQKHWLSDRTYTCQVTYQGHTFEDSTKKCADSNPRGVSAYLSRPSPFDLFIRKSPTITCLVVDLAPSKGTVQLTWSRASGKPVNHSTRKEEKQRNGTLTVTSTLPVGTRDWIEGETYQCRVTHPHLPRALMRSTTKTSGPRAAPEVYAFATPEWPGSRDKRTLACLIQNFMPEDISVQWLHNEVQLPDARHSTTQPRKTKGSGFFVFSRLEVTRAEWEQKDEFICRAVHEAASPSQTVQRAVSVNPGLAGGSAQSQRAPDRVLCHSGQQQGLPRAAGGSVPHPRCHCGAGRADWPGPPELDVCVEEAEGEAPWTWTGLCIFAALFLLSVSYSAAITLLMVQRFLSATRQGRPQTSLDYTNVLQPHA
As to `Cc1cc(Nc2nncn2[C@@H]2CCc3c2cc(S(=O)(=O)NCC(C)C)c2cc(C4CC4)ncc32)n(C)n1` (single isomer, unassigned) [Example 87, (7R*)-3-cyclopropyl-7-[3-[(2,5-dimethylpyrazol-3-yl)amino]-1,2,4-triazol-4-yl]-N-(2-methylpropyl)-8,9-dihydro-7H-cyclopenta[h]isoquinoline-5-sulfonamide], the concentration for half-maximal inhibition (IC50) lay in the range of 10 to 50 nM.

On to `CC(C)(F)CNS(=O)(=O)c1cc2c(c3cnc(C4CC4)cc13)[C@H](NC(=O)c1c[nH]c3cc(F)ccc13)CC2` (single isomer, unassigned) [Example 16, 6-fluoro-N-[(9R*)-3-cyclopropyl-5-[(2-fluoro-2-methylpropyl)sulfamoyl]-8,9-dihydro-7H-cyclopenta[h]isoquinolin-9-yl]-1H-indole-3-carboxamide], for which the IC50 lay within 100 to 2000 nM.

Turning to `CC(C)CNS(=O)(=O)c1cc2c(c3cnc(C4CC4)cc13)CCC2Nc1c(Nc2cccnc2)c(=O)c1=O` (stereo not shown) [Example 84, 3-cyclopropyl-7-[[3,4-dioxo-2-(pyridin-3-ylamino)cyclobuten-1-yl]amino]-N-(2-methylpropyl)-8,9-dihydro-7H-cyclopenta[h]isoquinoline-5-sulfonamide], the IC50 lay within 10 to 50 nM.

As to `CC(C)CNS(=O)(=O)c1cc2c(c3cnc(C4CC4)cc13)CCC2O` (stereo not shown) [Example 47, 3-cyclopropyl-7-hydroxy-N-(2-methylpropyl)-8,9-dihydro-7H-cyclopenta[h]isoquinoline-5-sulfonamide], the IC50 lay in the range of 100 to 2000 nM.

As for `Cc1cc(C(=O)N[C@@H]2CCc3cc(S(=O)(=O)NCC(C)C)c4cc(C5CC5)ncc4c32)n[nH]1` (single isomer, unassigned) [Example 20, 5-methyl-N-[(9R*)-3-cyclopropyl-5-(2-methylpropylsulfamoyl)-8,9-dihydro-7H-cyclopenta[h]isoquinolin-9-yl]-1H-pyrazole-3-carboxamide], the half-maximal inhibitory concentration (IC50) was in the range of 100 to 2000 nM.

As for `CC(C)CNS(=O)(=O)c1cc2c(c3cnc(C4CC4)cc13)CCC2Nc1nncn1-c1cccnc1` (stereo not shown) [Example 90, 3-cyclopropyl-N-(2-methylpropyl)-7-[(4-pyridin-3-yl-1,2,4-triazol-3-yl)amino]-8,9-dihydro-7H-cyclopenta[h]isoquinoline-5-sulfonamide], the IC50 was 100 to 2000 nM.

In the case of `CC(C)CNS(=O)(=O)c1cc2c(c3cnc(C4CC4)cc13)C(n1cnnc1Nc1ccnn1C)CC2` (stereo not shown) [Example 4, 3-cyclopropyl-N-isobutyl-9-[3-[(2-methylpyrazol-3-yl)amino]-1,2,4-triazol-4-yl]-8,9-dihydro-7H-cyclopenta[h]isoquinoline-5-sulfonamide], the IC50 was 100 to 2000 nM.

For `CC(C)(F)CNS(=O)(=O)c1cc2c(c3cnc(C4CC4)cc13)CCC2NCc1cc2ccccc2[nH]1` (stereo not shown) [Example 61, 3-cyclopropyl-N-(2-fluoro-2-methylpropyl)-7-(1H-indol-2-ylmethylamino)-8,9-dihydro-7H-cyclopenta[h]isoquinoline-5-sulfonamide], the concentration for half-maximal inhibition (IC50) lay in the range of 100 to 2000 nM.

As for `[2H]C([2H])(NS(=O)(=O)c1cc2c(c3cnc(C4CC4)cc13)CCC2N)C(C)C` (stereo not shown) [Example 34, 7-amino-3-cyclopropyl-N-(1,1-dideuterio-2-methylpropyl)-8,9-dihydro-7H-cyclopenta[h]isoquinoline-5-sulfonamide], the 50% inhibitory concentration (IC50) was 100 to 2000 nM.

On to `Cc1cc(-n2cnnc2NC2CCc3c2cc(S(=O)(=O)NCC(C)(C)F)c2cc(C4CC4)nnc32)n(C)n1` (stereo not shown) [Example 24, 3-cyclopropyl-7-[[4-(2,5-dimethylpyrazol-3-yl)-1,2,4-triazol-3-yl]amino]-N-(2-fluoro-2-methylpropyl)-8,9-dihydro-7H-cyclopenta[h]cinnoline-5-sulfonamide], for which the IC50 is 10 to 50 nM.

As for `CC(C)CNS(=O)(=O)c1cc2c(c3cnc(C4CC4)cc13)[C@@H](Nc1nc3ccccc3[nH]1)CC2` (single isomer, unassigned) [Example 80, (9R*)-9-(1H-benzimidazol-2-ylamino)-3-cyclopropyl-N-(2-methylpropyl)-8,9-dihydro-7H-cyclopenta[h]isoquinoline-5-sulfonamide], the IC50 lay in the range of 10 to 50 nM.

As for `CCNc1nncn1C1CCc2c1cc(S(=O)(=O)NCC(C)C)c1cc(C3CC3)ncc21` (single isomer, unassigned) [Example 52, (7R*)-3-cyclopropyl-7-[3-(ethylamino)-1,2,4-triazol-4-yl]-N-(2-methylpropyl)-8,9-dihydro-7H-cyclopenta[h]isoquinoline-5-sulfonamide], the 50% inhibitory concentration (IC50) was in the range of 10 to 50 nM.

With `CC(C)(F)CNS(=O)(=O)c1cc2c(c3cnc(C4CC4)cc13)CCC2n1nnnc1N` (stereo not shown) [Example 39, 7-(5-aminotetrazol-1-yl)-3-cyclopropyl-N-(2-fluoro-2-methylpropyl)-8,9-dihydro-7H-cyclopenta[h]isoquinoline-5-sulfonamide], the IC50 was 100 to 2000 nM.

Consider `CC(C)CNS(=O)(=O)c1cc2c(c3cnc(C4CC4)cc13)CCC2N` (stereo not shown) [Example 50, 7-amino-3-cyclopropyl-N-(2-methylpropyl)-8,9-dihydro-7H-cyclopenta[h]isoquinoline-5-sulfonamide], for which the IC50 lay in the range of 100 to 2000 nM.

Consider `CNC(=O)[C@H]1CCCN1[C@@H]1CCc2c1cc(S(=O)(=O)NCC(C)(C)F)c1cc(C3CC3)ncc21` (relative stereo) [Example 58, (2R)-1-[(7R*)-3-cyclopropyl-5-[(2-fluoro-2-methylpropyl)sulfamoyl]-8,9-dihydro-7H-cyclopenta[h]isoquinolin-7-yl]-N-methylpyrrolidine-2-carboxamide], for which the IC50 fell in the range of 100 to 2000 nM.

For the compound `CC(C)(F)CNS(=O)(=O)c1cc2c(c3cnc(C4CC4)cc13)CCC2Nc1cccnc1` (stereo not shown) [Example 31, 3-cyclopropyl-N-(2-fluoro-2-methylpropyl)-7-(pyridin-3-ylamino)-8,9-dihydro-7H-cyclopenta[h]isoquinoline-5-sulfonamide], the half-inhibitory concentration (IC50) was 10 to 50 nM.

For `CC(C)CNS(=O)(=O)c1cc2c(c3cnc(C4CC4)cc13)C(NS(C)(=O)=O)CC2` (stereo not shown) [Example 70, 3-cyclopropyl-9-(methanesulfonamido)-N-(2-methylpropyl)-8,9-dihydro-7H-cyclopenta[h]isoquinoline-5-sulfonamide], the IC50 was in the range of 100 to 2000 nM.

On to `Cn1cc(C#N)c(NC2CCc3cc(S(=O)(=O)NCC(C)(C)F)c4cc(C5CC5)ncc4c32)n1` (stereo not shown) [Example 67, 9-[(4-cyano-1-methylpyrazol-3-yl)amino]-3-cyclopropyl-N-(2-fluoro-2-methylpropyl)-8,9-dihydro-7H-cyclopenta[h]isoquinoline-5-sulfonamide], for which the IC50 is 100 to 2000 nM.

Consider `O=S(=O)(NC1CC(F)(F)C1)c1cc2c(c3cnc(C4CC4)cc13)CCC2n1cnnc1NCC1CC1` (stereo not shown) [Example 81, 3-cyclopropyl-7-[3-(cyclopropylmethylamino)-1,2,4-triazol-4-yl]-N-(3,3-difluorocyclobutyl)-8,9-dihydro-7H-cyclopenta[h]isoquinoline-5-sulfonamide], for which the IC50 is 100 to 2000 nM.

On to `CC(C)(F)CNS(=O)(=O)c1cc2c(c3cnc(C4CC4)cc13)OCC2O` (stereo not shown) [Example 36, 7-cyclopropyl-N-(2-fluoro-2-methylpropyl)-3-hydroxy-2,3-dihydrofuro[3,2-h]isoquinoline-5-sulfonamide], for which the half-maximal inhibitory concentration (IC50) lay within 10 to 50 nM.

Consider `COC(=O)c1ccc(NC2CCc3cc(S(=O)(=O)NCC(C)C)c4cc(C5CC5)ncc4c32)cn1` (stereo not shown) [Example 18, methyl 5-[[3-cyclopropyl-5-(2-methylpropylsulfamoyl)-8,9-dihydro-7H-cyclopenta[h]isoquinolin-9-yl]amino]pyridine-2-carboxylate], for which the concentration for half-maximal inhibition (IC50) lay in the range of 10 to 50 nM.

Turning to `CC(C)(F)CNS(=O)(=O)c1cc2c(c3cnc(C4CC4)cc13)CC[C@H]2NC(=O)NCC1CC1` (single isomer, unassigned) [Example 8, 1-(cyclopropylmethyl)-3-[(7R*)-3-cyclopropyl-5-[(2-fluoro-2-methylpropyl)sulfamoyl]-8,9-dihydro-7H-cyclopenta[h]isoquinolin-7-yl]urea], the half-maximal inhibitory concentration (IC50) is 100 to 2000 nM.

For the compound `CC(C)(F)CNS(=O)(=O)c1cc2c(c3cnc(C4CC4)cc13)C(Nc1cncnc1)CC2` (stereo not shown) [Example 28, 3-cyclopropyl-N-(2-fluoro-2-methylpropyl)-9-(pyrimidin-5-ylamino)-8,9-dihydro-7H-cyclopenta[h]isoquinoline-5-sulfonamide], the IC50 was 50 to 100 nM.

`CC(C)CNS(=O)(=O)c1cc2c(c3cnc(C4CC4)cc13)C(NC(=O)Nc1ccc(Br)cc1)CC2` (stereo not shown) [Example 45, 1-(4-bromophenyl)-3-[3-cyclopropyl-5-(2-methylpropylsulfamoyl)-8,9-dihydro-7H-cyclopenta[h]isoquinolin-9-yl]urea]: the IC50 fell in the range of 100 to 2000 nM.

On to `Cc1nnc(-c2ccc(NC3CCc4c3cc(S(=O)(=O)NCC(C)(C)F)c3cc(C5CC5)ncc43)cn2)o1` (stereo not shown) [Example 42, 3-cyclopropyl-N-(2-fluoro-2-methylpropyl)-7-[[6-(5-methyl-1,3,4-oxadiazol-2-yl)pyridin-3-yl]amino]-8,9-dihydro-7H-cyclopenta[h]isoquinoline-5-sulfonamide], for which the IC50 lay in the range of 1 to 10 nM.

Turning to `Cc1nnc(-c2ccc(NC3CCc4cc(S(=O)(=O)NCC(C)(C)F)c5cc(C6CC6)ncc5c43)cn2)o1` (stereo not shown) [Example 76, 3-cyclopropyl-N-(2-fluoro-2-methylpropyl)-9-[[6-(5-methyl-1,3,4-oxadiazol-2-yl)pyridin-3-yl]amino]-8,9-dihydro-7H-cyclopenta[h]isoquinoline-5-sulfonamide], the 50% inhibitory concentration (IC50) fell in the range of 100 to 2000 nM.

In the case of `Cc1ccc(NC(=NC#N)NC2CCc3c2cc(S(=O)(=O)NCC(C)C)c2cc(C4CC4)ncc32)cc1` (stereo not shown) [Example 55, 2-cyano-1-[3-cyclopropyl-5-(2-methylpropylsulfamoyl)-8,9-dihydro-7H-cyclopenta[h]isoquinolin-7-yl]-3-(4-methylphenyl)guanidine], the IC50 lay within 100 to 2000 nM.

Take `CC(C)(F)CNS(=O)(=O)c1cc2c(c3cnc(C4CC4)cc13)CC[C@H]2n1ccnc1NCC1CC1` (single isomer, unassigned) [Example 12, (7R*)-3-cyclopropyl-7-[2-(cyclopropylmethylamino)imidazol-1-yl]-N-(2-fluoro-2-methylpropyl)-8,9-dihydro-7H-cyclopenta[h]isoquinoline-5-sulfonamide]: the IC50 was 100 to 2000 nM.

The term IC50 denotes the concentration that inhibits the measured activity by half.
